# Laboratory results as given in patent US12697331B2, “Methods of use of T-type calcium channel modulators” (PRAXIS PRECISION MEDICINES, INC., priority 2020, dated 2026).
# Counter-ions that a name gives are not always drawn.
# Tests used:
# gamma band EEG power = assay: qEEG: gamma band EEG power (eyes open / eyes closed); assay type: in vivo, human; settings: Part B, beginning at 60 mg and continuing through to 120 mg
# Description: It appears a maximal effect in gamma reduction was not achieved.
# The eyes open (EO) and eyes closed (EC) gamma absolute power for each individual was also estimated at specific time points across the study days.
# hCav3.3 = target: T1, hCav3.3 (Homo sapiens, UniProt Q9P0X4); assay: PatchXpress patch clamp, voltage dependent block (half-inactivated state, V0.5); assay type: cell-based; settings: for Inhibition of hCav 3.3 peak current, voltage dependent block (percent inhibition), mean: half-inactivated state (V0.5)
# T1 construct: expressed in transfected cells; host or cells: HEK-293 (cultured under G418 selection)
# Experimental: (§1) The voltage dependence of calcium channel isoforms was determined by comparing the activity of resting (Tonic Block) and half-inactivated (Voltage Dependent Block) voltages across various concentrations of Formula (II). First, HEK-293 cells containing hCav3.1, hCav3.2, or hCav3.3 calcium channel isoforms were prepared by seeding at 2×10^6 cells per flask in culture for 2 days; the cells were then harvested at about 6×10^6 cells. Harvested cells were washed once in DPBS for approximately 30 minutes, and 1 mL of 1× (0.05%) Trypsin-EDTA was added, swirled, and allowed to sit on the cells for approximately 4 minutes. 10 mL of warmed DMEM high glucose media supplemented with 10% fetal bovine serum, 2 mM sodium pyruvate, 10 mM HEPES, and 400 μg/mL G418 was added, and the cells were triturated until a single cell suspension was […]. Cells were placed in a 250 mL centrifuge tube with 30 mL warmed media and gently rocked at 28° C. for approximately 1 hour. Cell aliquots of 5 mLs (1×10^6 cells) were then centrifuged at 100× for 2 minutes, and supernatant was removed. Next, 100 μl of external recording solution was added to the remaining cell pellet and triturated 20 times to achieve a single cell suspension.
# (§2) Immediately prior to assay, Formula (II) was diluted with DMSO to 300× the designated final concentration. All studies were performed using the Molecular Devices PatchXpress automated patch clamp platform at room temperature.
# (§3) Pharmacology was measured during Epoch 1. Percent inhibition was calculated as: 100*((([Step 2+Step 5]/2)−Step 3)/(Step 2+Step 5/2)), wherein Step 2 is the peak current measured at baseline, Step 5 is the current measured during the wash period, and Step 3 is the peak current measured during application of the compound. The average of the final 3 consecutive currents in each experimental procedure was used for all calculations. The concentration response curve was fit with a Hill equation to derive IC50, slope, minimum response, and maximum response fitting parameters.
# (§4) To calculate the hCav3.1, hCav3.2, and hCav3.3 peak current from a half-inactivated state (voltage dependent block), currents were first evoked by depolarizing pulses to −25 mV (10 ms) from a non-inactivating holding potential (−120 mV) at a frequency of 0.1 Hz. After current amplitude became stable, the mid-point average of steady state inactivation was determined for each cell using a series of 9,900 ms conditioning steps to increasingly depolarize voltages (ranging from Vhold (−120 mV) to −40 mV) preceding a test pulse to −25 mV (10 ms) to establish the magnitude of inactivation. The holding command potential was then set to the voltage that produced approximately 50% inactivation (V0.5) using PatchXpress scripts. From this V0.5 potential, a voltage step to −25 mV (10 ms) was used to evoque peak current. The voltage was stepped to −120 mv (50 ms) to evoque tail currents and monitor cell integrity.
# (§5) The effect of the compound on peak current amplitude was monitored using the voltage protocol described above and washed out after reaching steady state as determined by PatchXpress stability scripts. Washout was performed at the original holding potential of −120 mV to facilitate reversal of state-dependent interactions. Washout current for the calculation of inhibition was determined by resetting the holding potential to the previously determined half-inactivation potential (V0.5) and measuring peak current from this holding potential. Pharmacology was measured during Epoch 1, and percent inhibition was calculated as discussed above for tonic block.
# hCav3.2 = target: T2, hCav3.2 (Homo sapiens, UniProt O95180); assay: as above; assay type: cell-based; settings: for Inhibition of hCav3.2 peak current, voltage dependent block (percent inhibition), mean: half-inactivated state (V0.5)
# T2 construct: expressed in transfected cells; host or cells: HEK-293 (cultured under G418 selection)
# Experimental: as §1, §2, §3, §4, §5
# hCav3.1 = target: T3, hCav3.1 (Homo sapiens, UniProt O43497); assay: as above; assay type: cell-based; settings: for Inhibition of hCav3.1 peak current, voltage dependent block (percent inhibition), mean: half-inactivated state (V0.5)
# T3 construct: expressed in transfected cells; host or cells: HEK-293 (cultured under G418 selection)
# Experimental: as §1, §2, §3, §4, §5
# T2 sequence (O95180 whole entry): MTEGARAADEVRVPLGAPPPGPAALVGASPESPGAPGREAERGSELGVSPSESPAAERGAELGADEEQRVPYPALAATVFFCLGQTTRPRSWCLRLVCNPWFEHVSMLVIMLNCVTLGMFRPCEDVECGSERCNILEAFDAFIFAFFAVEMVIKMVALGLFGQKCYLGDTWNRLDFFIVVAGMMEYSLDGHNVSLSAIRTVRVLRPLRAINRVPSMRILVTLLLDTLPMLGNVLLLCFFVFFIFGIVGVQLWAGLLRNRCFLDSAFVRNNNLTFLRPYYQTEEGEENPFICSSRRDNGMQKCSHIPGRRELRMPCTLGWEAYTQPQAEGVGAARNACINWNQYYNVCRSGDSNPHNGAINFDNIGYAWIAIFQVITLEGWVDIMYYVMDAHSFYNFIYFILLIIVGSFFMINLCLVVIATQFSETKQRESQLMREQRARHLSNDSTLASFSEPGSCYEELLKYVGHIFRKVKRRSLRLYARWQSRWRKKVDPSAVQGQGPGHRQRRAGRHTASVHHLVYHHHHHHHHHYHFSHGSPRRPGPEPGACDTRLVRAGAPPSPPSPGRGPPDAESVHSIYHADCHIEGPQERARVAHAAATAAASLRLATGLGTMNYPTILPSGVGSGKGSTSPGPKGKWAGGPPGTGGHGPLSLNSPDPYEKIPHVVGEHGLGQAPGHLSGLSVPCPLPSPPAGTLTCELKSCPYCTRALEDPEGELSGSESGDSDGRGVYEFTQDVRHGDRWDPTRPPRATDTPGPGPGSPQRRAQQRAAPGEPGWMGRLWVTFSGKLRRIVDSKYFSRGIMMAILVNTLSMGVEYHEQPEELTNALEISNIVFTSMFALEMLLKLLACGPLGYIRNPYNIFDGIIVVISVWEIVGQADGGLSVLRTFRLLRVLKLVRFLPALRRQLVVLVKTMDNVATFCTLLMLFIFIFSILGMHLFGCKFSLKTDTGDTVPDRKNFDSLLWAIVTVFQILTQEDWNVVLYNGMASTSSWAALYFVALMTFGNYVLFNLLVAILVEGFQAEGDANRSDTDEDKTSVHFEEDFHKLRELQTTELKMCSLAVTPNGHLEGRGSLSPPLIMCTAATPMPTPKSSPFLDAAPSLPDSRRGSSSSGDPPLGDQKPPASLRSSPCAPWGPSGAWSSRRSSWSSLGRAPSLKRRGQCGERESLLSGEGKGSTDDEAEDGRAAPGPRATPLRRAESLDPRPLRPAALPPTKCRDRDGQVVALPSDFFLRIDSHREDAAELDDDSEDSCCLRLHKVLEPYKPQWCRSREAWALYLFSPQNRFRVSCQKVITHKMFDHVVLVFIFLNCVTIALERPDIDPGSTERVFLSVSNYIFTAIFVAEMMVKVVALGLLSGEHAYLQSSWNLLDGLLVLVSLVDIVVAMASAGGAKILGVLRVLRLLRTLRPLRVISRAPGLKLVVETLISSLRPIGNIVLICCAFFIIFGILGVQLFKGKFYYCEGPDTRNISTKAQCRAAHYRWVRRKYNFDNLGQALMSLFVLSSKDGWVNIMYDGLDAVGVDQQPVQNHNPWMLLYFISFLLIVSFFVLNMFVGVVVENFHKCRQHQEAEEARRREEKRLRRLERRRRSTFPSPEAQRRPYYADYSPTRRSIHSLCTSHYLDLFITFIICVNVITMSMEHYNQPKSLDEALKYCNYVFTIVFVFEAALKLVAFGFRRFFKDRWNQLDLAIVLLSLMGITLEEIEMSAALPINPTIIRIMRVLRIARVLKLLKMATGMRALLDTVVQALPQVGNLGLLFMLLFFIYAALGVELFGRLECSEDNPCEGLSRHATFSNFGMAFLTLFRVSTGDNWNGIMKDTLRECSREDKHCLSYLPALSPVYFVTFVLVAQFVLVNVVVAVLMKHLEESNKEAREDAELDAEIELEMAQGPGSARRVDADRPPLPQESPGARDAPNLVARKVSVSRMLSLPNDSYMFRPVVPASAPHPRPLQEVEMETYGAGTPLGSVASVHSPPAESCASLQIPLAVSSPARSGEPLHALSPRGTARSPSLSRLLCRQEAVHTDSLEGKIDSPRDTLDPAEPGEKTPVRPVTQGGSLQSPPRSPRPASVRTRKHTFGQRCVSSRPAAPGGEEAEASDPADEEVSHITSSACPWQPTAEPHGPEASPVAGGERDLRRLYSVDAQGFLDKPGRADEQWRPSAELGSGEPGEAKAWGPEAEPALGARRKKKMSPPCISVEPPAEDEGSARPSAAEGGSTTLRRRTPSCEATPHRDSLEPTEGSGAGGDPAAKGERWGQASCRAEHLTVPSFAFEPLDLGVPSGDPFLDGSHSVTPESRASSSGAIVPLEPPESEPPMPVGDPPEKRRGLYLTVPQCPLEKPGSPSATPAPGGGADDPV
# T3 sequence (O43497 whole entry): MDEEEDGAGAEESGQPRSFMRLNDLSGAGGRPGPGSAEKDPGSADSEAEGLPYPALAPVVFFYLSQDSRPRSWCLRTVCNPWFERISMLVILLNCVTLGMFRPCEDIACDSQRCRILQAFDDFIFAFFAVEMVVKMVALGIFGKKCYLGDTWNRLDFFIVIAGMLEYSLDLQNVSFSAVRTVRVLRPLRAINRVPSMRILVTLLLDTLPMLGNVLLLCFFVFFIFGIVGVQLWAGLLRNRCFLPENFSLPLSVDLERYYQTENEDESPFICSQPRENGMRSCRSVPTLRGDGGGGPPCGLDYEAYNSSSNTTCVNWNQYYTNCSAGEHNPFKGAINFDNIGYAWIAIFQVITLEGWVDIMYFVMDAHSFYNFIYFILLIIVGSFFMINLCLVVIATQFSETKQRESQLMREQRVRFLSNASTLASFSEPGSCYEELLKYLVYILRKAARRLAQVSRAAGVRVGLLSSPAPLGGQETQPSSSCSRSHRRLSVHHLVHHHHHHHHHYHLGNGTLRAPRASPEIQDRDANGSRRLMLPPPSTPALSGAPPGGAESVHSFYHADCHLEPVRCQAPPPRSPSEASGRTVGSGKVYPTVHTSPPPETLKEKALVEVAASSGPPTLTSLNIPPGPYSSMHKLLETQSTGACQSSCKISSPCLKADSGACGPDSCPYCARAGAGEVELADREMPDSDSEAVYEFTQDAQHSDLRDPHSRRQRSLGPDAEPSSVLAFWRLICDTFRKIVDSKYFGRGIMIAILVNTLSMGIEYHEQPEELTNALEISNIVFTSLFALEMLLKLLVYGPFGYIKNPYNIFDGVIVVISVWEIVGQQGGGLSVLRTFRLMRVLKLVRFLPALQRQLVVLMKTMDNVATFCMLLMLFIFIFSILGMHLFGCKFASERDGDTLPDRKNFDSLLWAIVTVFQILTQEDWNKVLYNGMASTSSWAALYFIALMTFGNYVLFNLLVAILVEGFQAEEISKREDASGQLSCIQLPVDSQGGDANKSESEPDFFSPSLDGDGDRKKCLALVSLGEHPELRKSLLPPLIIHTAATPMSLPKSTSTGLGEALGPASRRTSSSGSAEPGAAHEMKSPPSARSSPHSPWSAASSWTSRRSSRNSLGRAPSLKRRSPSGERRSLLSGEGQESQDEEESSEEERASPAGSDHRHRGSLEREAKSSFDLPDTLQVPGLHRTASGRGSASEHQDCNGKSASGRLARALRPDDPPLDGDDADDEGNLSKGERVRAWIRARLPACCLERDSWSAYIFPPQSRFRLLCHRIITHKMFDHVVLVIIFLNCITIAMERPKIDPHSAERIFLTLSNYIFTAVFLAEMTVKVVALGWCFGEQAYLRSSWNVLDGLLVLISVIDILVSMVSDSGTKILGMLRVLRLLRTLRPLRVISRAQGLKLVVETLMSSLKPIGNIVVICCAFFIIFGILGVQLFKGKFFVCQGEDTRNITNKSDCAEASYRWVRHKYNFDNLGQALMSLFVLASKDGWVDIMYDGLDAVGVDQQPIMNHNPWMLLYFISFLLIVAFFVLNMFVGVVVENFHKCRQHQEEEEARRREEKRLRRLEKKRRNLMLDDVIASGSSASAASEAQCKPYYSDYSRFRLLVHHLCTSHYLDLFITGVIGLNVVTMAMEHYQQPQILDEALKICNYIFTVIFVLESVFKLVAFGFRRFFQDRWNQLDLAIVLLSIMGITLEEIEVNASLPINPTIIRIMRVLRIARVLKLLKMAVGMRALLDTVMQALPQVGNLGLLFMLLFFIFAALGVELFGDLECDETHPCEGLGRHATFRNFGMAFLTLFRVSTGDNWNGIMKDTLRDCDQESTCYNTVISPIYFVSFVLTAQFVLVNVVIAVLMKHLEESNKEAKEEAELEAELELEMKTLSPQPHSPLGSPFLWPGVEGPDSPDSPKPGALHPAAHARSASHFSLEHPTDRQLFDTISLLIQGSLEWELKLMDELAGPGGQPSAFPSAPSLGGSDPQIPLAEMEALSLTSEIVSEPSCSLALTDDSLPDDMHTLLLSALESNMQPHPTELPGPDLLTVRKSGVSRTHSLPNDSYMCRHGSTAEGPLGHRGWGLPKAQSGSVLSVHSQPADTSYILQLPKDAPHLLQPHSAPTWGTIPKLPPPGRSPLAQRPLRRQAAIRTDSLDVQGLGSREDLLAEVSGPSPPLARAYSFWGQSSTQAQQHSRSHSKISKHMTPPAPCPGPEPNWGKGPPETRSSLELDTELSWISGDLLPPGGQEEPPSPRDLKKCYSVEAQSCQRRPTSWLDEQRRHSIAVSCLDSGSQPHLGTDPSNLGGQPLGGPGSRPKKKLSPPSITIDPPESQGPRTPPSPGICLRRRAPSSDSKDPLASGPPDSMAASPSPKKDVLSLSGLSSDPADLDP
smiles,measurement,setting,value
"CC(C)(C)NC(=O)CN1CCC(CNC(=O)c2cc(F)cc(Cl)c2)CC1 [compound of formula (II), N-((1-(2-(tert-butylamino)-2-oxoethyl)piperidin-4-yl)methyl)-3-chloro-5-fluorobenzamide hydrochloride]",Effect on gamma band EEG power,gamma band EEG power,dose-related reduction
same,"Inhibition of hCav 3.3 peak current, voltage dependent block (percent inhibition), mean",hCav3.3; 0.03 μm,12.9 (8)
same,"Inhibition of hCav 3.3 peak current, voltage dependent block (percent inhibition), mean",hCav3.3; 0.09 μm,26.9 (17)
same,"Inhibition of hCav 3.3 peak current, voltage dependent block (percent inhibition), mean",hCav3.3; 0.27 μm,58.7 (19)
same,"Inhibition of hCav 3.3 peak current, voltage dependent block (percent inhibition), mean",hCav3.3; 0.91 μm,76.9 (20)
same,"Inhibition of hCav 3.3 peak current, voltage dependent block (percent inhibition), mean",hCav3.3; 2.74 μm,89.4 (20)
same,"Inhibition of hCav 3.3 peak current, voltage dependent block (percent inhibition), mean",hCav3.3; 9.13 μm,92.9 (4)
same,tonic block/voltage dependent block (TB/VDB) ratio,hCav3.3; hCav3.3,4.0
same,"Inhibition of hCav3.2 peak current, voltage dependent block (percent inhibition), mean",hCav3.2; 0.03 μm,16.6 (11)
same,"Inhibition of hCav3.2 peak current, voltage dependent block (percent inhibition), mean",hCav3.2; 0.09 μm,31.2 (7)
same,"Inhibition of hCav3.2 peak current, voltage dependent block (percent inhibition), mean",hCav3.2; 0.27 μm,48.4 (9)
same,"Inhibition of hCav3.2 peak current, voltage dependent block (percent inhibition), mean",hCav3.2; 0.91 μm,78.8 (12)
same,"Inhibition of hCav3.2 peak current, voltage dependent block (percent inhibition), mean",hCav3.2; 2.74 μm,91.6 (13)
same,tonic block/voltage dependent block (TB/VDB) ratio,hCav3.2; hCav3.2,2.0
same,"Inhibition of hCav3.1 peak current, voltage dependent block (percent inhibition), mean",hCav3.1; 0.03 μm,13.9 (12)
same,"Inhibition of hCav3.1 peak current, voltage dependent block (percent inhibition), mean",hCav3.1; 0.09 μm,29.7 (14)
same,"Inhibition of hCav3.1 peak current, voltage dependent block (percent inhibition), mean",hCav3.1; 0.27 μm,55.2 15)
same,"Inhibition of hCav3.1 peak current, voltage dependent block (percent inhibition), mean",hCav3.1; 0.91 μm,73.8 (9)
same,"Inhibition of hCav3.1 peak current, voltage dependent block (percent inhibition), mean",hCav3.1; 2.74 μm,84.6 (9)
same,"Inhibition of hCav3.1 peak current, voltage dependent block (percent inhibition), mean",hCav3.1; 9.13 μm,86.0 (7)
same,tonic block/voltage dependent block (TB/VDB) ratio,hCav3.1; hCav3.1,3.8
